According to patent US5288757A, “Aminosulfonyl urea ACAT inhibitors and a method of lowering blood cholesterol levels therewith” (priority 1993, dated 1994):

system: Plasma TC; assay: in vivo screen designated APCC, plasma total cholesterol in rats on high fat, high cholesterol diet; design: species or system male Sprague-Dawley rats; settings: * dosed at 50 mg/kg; rat; high fat, high cholesterol diet with 0.5% cholic acid; read-out: % Change in Plasma TC Values (mg/dl)
From the text: In one in vivo screen designated APCC, male Sprague-Dawley rats (200 to 225 g) were randomly divided into treatment groups and dosed at 4 PM with either vehicle (CMC/Tween) or suspensions of compounds in vehicle. The normal chow diet was then replaced with a high fat, high cholesterol diet with 0.5% cholic acid. The rats consumed this diet ad libitum during the night and were sacrificed at 8 AM to obtain blood samples for cholesterol analysis using standard procedures. Statistical differences between mean cholesterol values for the same vehicle were determined using analysis of variance followed by Fisher's least significant test. Compounds were dosed at 30 mg/kg unless otherwise noted.

Row | Compound | change in vivo at 50 mg/kg [%]
1 | CC(C)c1cccc(C(C)C)c1NC(=O)NS(=O)(=O)N(C(C)C)C(C)C [Example 1, N-[2,6-bis(1-methylethyl)phenyl]-N'-[[bis(1-methylethyl)amino]sulfonyl]ure] | -59
2 | CC(C)c1cccc(C(C)C)c1NC(=O)NS(=O)(=O)NC(c1ccccc1)c1ccccc1 [Example 2, N-[2,6-bis(1-methylethyl)phenyl]-N'-[[(diphenylmethyl)amino]sulfonyl]urea] | -14
3 | CCCCN(CCCC)S(=O)(=O)NC(=O)Nc1c(C(C)C)cccc1C(C)C [Example 4, N-[2,6-bis(1-methylethyl)phenyl]-N'-[(dibutylamino)sulfonyl]urea] | -66
4 | CC(C)c1cccc(C(C)C)c1NC(=O)NS(=O)(=O)Nc1c(C(C)C)cccc1C(C)C [Example 6, N-[2,6-bis(1-methylethyl)phenyl]-N'-[[[2,6-bis(1-methylethyl)phenyl]amino]sulfonyl]urea] | -54
5 | CC(C)c1cccc(C(C)C)c1NC(=O)NS(=O)(=O)NCC(c1ccccc1)c1ccccc1 [Example 7, N-[2,6-bis(1-methylethyl)phenyl]-N'-[[(2,2-diphenylethyl)amino]sulfonyl]urea] | -20
6 | CC(C)c1cccc(C(C)C)c1NC(=O)NS(=O)(=O)N(Cc1ccccc1)Cc1ccccc1 [Example 9, N-[2,6-bis(1-methylethyl)phenyl]-N'-[(bis(phenylmethyl)amino)sulfonyl]urea] | -59
7 | CC(C)c1cccc(C(C)C)c1NC(=O)NS(=O)(=O)NC1c2ccccc2-c2ccccc21 [Example 10, N-[2,6-bis(1-methylethyl)phenyl]-N'-[(9H-fluoren-9-ylamino)sulfonyl]urea] | -4
8 | CC(C)c1cccc(C(C)C)c1NC(=O)NS(=O)(=O)N(Cc1ccccc1)C(C)C [Example 11, N-[2,6-bis(1-methylethyl)phenyl]-N'-[[(1-methylethyl)(phenylmethyl)amino]sulfonyl]urea] | -60
9 | CCCCCCCCN(CCCCCCCC)S(=O)(=O)NC(=O)Nc1c(C(C)C)cccc1C(C)C [Example 12, N-[2,6-bis(1-methylethyl)phenyl]-N'-[(dioctylamino)sulfonyl]urea] | -41

same assay, conditions: dosed at 30 mg/kg; rat; high fat, high cholesterol diet with 0.5% cholic acid; read-out: % Change in Plasma TC Values (mg/dl)

Row | Compound | change in vivo at 30 mg/kg [%]
10 | CC(C)c1cccc(C(C)C)c1NC(=O)NS(=O)(=O)N(c1ccccc1)c1ccccc1 [Example 3] | -37
11 | CC(C)c1cccc(C(C)C)c1NC(=O)NS(=O)(=O)N1CCC(c2ccccc2)CC1 [Example 13, N-[2,6-bis(1-methylethyl)phenyl]-N'-[(4-phenyl-1-piperidinyl)sulfonyl]urea] | -67
12 | CCCCCCN(CCCCCC)S(=O)(=O)NC(=O)Nc1c(C(C)C)cccc1C(C)C [Example 14] | -77
13 | CC(C)c1cccc(C(C)C)c1NC(=O)NS(=O)(=O)N(CCCN(C)C)CCCN(C)C [Example 15, N-[[bis[3-(dimethylamino)propyl]amino]sulfonyl]-N'-[2,6-bis(1-methylethyl)phenyl]urea] | -30
14 | CCCCCCNS(=O)(=O)NC(=O)Nc1c(C(C)C)cccc1C(C)C [Example 16, N-[2,6-bis(1-methylethyl)phenyl]-N'-[(hexylamino)sulfonyl]urea] | -19
15 | CC(C)c1cccc(C(C)C)c1NC(=O)NS(=O)(=O)N(CC1CCCO1)CC1CCCO1 (stereo not shown) [Example 17, N-[2,6-bis(1-methylethyl)phenyl]-N'-[[bis[(tetrahydro-2-furanyl)methyl]amino]sulfonyl]urea] | -53
16 | CCN(CC)S(=O)(=O)NC(=O)Nc1c(C(C)C)cccc1C(C)C [Example 18, N-[2,6-bis(1-methylethyl)phenyl]-N'-[(diethylamino)sulfonyl]urea] | -19
17 | CCCCCCCCN(C)S(=O)(=O)NC(=O)Nc1c(C(C)C)cccc1C(C)C [Example 19, N-[2,6-bis(1-methylethyl)phenyl]-N'-[(methyloctylamino)sulfonyl]urea] | -59
18 | CC(C)c1cccc(C(C)C)c1NC(=O)NS(=O)(=O)N(C)CCc1ccccc1 [Example 20, N-[2,6-bis(1-methylethyl)phenyl]-N'-[[methyl(2-phenylethyl)amino]sulfonyl]urea] | -71
19 | CC(C)c1cccc(C(C)C)c1NC(=O)NS(=O)(=O)N(C(C)C)C1CCCCC1 [Example 21, N-[2,6-bis(1-methylethyl)phenyl]-N'[[cyclohexyl(1-methylethyl)amino]sulfonyl]urea] | -68
20 | CCCCCN(CCCCC)S(=O)(=O)NC(=O)Nc1c(C(C)C)cccc1C(C)C [Example 22, N-[2,6-bis(1-methylethyl)phenyl]-N'-[(dipentylamino)sulfonyl]urea] | -76
21 | CC(C)CN(CC(C)C)S(=O)(=O)NC(=O)Nc1c(C(C)C)cccc1C(C)C [Example 23, N-[2,6-bis(1-methylethyl)phenyl]-N'-[[bis(2-methylpropyl)amino]sulfonyl]urea] | -75
22 | C=CCN(CC)S(=O)(=O)NC(=O)Nc1c(C(C)C)cccc1C(C)C [Example 24, N-[2,6-bis(1-methylethyl)phenyl]-N'-[[ethyl(2-propenyl)amino]sulfonyl]urea] | -48
23 | CC(C)CCN(CCC(C)C)S(=O)(=O)NC(=O)Nc1c(C(C)C)cccc1C(C)C [Example 25, N-[[bis(3-methylbutyl)amino]sulfonyl]-N'-[2,6-bis(1-methylethyl)phenyl] urea] | -60
24 | CCCCCCCCCCN(CCCCCCCCCC)S(=O)(=O)NC(=O)Nc1c(C(C)C)cccc1C(C)C [Example 26, N-[2,6-bis(1-methylethyl)phenyl]-N'-[(didecylamino)sulfonyl]urea] | -57
25 | CCCCCCCCCCCCN(CCCCCCCCCCCC)S(=O)(=O)NC(=O)Nc1c(C(C)C)cccc1C(C)C [Example 27] | 5
26 | CC(C)c1cccc(C(C)C)c1NC(=O)NS(=O)(=O)N(C1CCCCC1)C1CCCCC1 [Example 29, N-[2,6-bis(1-methylethyl)phenyl]-N'-[(dicyclohexylamino)sulfonyl]urea] | -64
27 | CCCCN(C)S(=O)(=O)NC(=O)Nc1c(C(C)C)cccc1C(C)C [Example 30, N-[2,6-bis(1-methylethyl)phenyl]-N'-[(butylmethylamino)sulfonyl]urea] | -56
28 | CCCCCCCCCCCCCCCCCCN(C)S(=O)(=O)NC(=O)Nc1c(C(C)C)cccc1C(C)C [Example 31, N-[2,6-bis(1-methylethyl)phenyl]-N'-[(methyloctadecylamino)sulfonyl]urea] | -60
29 | CC(C)NS(=O)(=O)NC(=O)Nc1c(C(C)C)cccc1C(C)C [Example 32, N-[2,6-bis(1-methylethyl)phenyl]-N'-[[(1-methylethyl)amino]sulfonyl]urea] | -17
30 | C=CCN(CC=C)S(=O)(=O)NC(=O)Nc1c(C(C)C)cccc1C(C)C [Example 33, N-[2,6-bis(1-methylethyl)phenyl]-N'-[(di-2-propenylamino)sulfonyl]urea] | -67
31 | CCCCN(CC)S(=O)(=O)NC(=O)Nc1c(C(C)C)cccc1C(C)C [Example 34, N-[2,6-bis(1-methylethyl)phenyl]-N'-[(butylethylamino)sulfonyl]urea] | -70
